Results reported in patent publication US8697746B2, “Solid dispersion of alpha-ketoamide derivatives” (Senju Pharmaceutical Co., Ltd., priority 2010, dated 2014).

Test: Dissolved amount in water (Test Example 1)
Type: physicochemical
Conditions: 5 mg sample in 1 mL water, shaken, supernatant measured by HPLC
Experimental: Each of the above-prepared Formulation 1 and the solid dispersions of Formulations 2 to 6 was separately dispersed in water. Sampling from each solution was performed at 15, 30, and 60 minutes after dispersion, and the concentration of ((1S)-1-((((1S)-1-benzyl-2,3-dioxo-3-(cyclopropylamino)propyl)amino) carbonyl)-3-methylbutyl)carbamic acid 5-methoxy-3-oxapentyl ester was measured according to the procedure shown below.
To 5 mg of each of the above-prepared Formulation 1 and the solid dispersions of Formulations 2 to 6, 1 mL of water was added and the mixture was shaken with a shaker (Labindustries Inc., Labquake Shaker L1237). Shaking was stopped when the predetermined sampling time elapsed, and centrifugation at 13000 rpm was immediately performed at 25° C. for 5 minutes with a centrifugal separator (Kendro Lab Products, Sorvall Biofuge Fresco) to give a supernatant. A sample solution was prepared by mixing 0.5 mL of methanol to 0.5 mL of the supernatant and then measured for concentration of ((1S)-1-((((1S)-1-benzyl-2,3-dioxo-3-(cyclopropylamino)propyl)amino)carbonyl)-3-methylbutyl) carbamic acid 5-methoxy-3-oxapentyl ester by HPLC (Shimadzu, 10A-VP system).
Detector: ultraviolet absorptiometer (detection wavelength: 252 nm)
Column: YMC-Pack ODS-A (inside diameter: 4.6 mm, length: 250 mm, particle diameter: 5 μm, YMC)
Column temperature: constant temperature at around 40° C. […]

## COCCOCCOC(=O)N[C@@H](CC(C)C)C(=O)N[C@@H](Cc1ccccc1)C(=O)C(=O)NC1CC1 [((1S)-1-((((1S)-1-benzyl-2,3-dioxo-3-(cyclopropylamino)propyl)amino)carbonyl)-3-methylbutyl)carbamic acid 5-methoxy-3-oxapentyl ester]
  dissolved amount in water: 0.45 mg/mL
